Experimental data as given in patent publication US20250170266A1 (ZYMEWORKS BC INC., priority 2022, published 2025).
Read-outs that look alike come from different tables or passages of the source.

Columns and labels:
Format in all cases: cell-based
[1] = system: Human peripheral blood mononuclear cells (PBMCs); test: Human PBMC Assay, cytokine release (HTRF); settings: PBMC, 24 hours
From the text: Human peripheral blood mononuclear cells (PBMCs) were isolated from fresh Leukopak using magnetic separation. Briefly, erythrocytes and granulocytes were magnetically labeled with Erythrocyte Depletion MicroBeads (Miltenyi Biotec) and Granulocyte Depletion MicroBeads (Miltenyi Biotec), respectively. The cell suspension was loaded onto a Multi-24 Column Block (Miltenyi Biotec) and placed in the magnetic field of a MultiMACS Cell24 Separator Plus (Miltenyi Biotec). The unlabelled PBMCs were collected in the run through. PBMCs were resuspended in CryoStor® CS10 ([…]) and frozen. On the day before the assay, PBMCs were thawed in warm assay buffer (RPMI+10% FBS) and resuspended in assay buffer+10 ng/ml hIL3 (R&D Systems). Cells were rested at 37° C.+5% CO2 overnight. The following day, cells were spun down and resuspended in fresh assay buffer. 300,000 cells were added to each well of plates containing test compound. For test compound preparation, each compound was initially diluted to 1 mM in DMSO and further diluted in assay buffer. A 4-fold 11-point titration starting from 15 μM was performed. Cells were incubated with test compound at 37° C.+5% CO2 for 24 hours before supernatant was harvested. Human interleukin 6 (hIL6), human tumor necrosis factor alpha (hTNFα), and human interferon alpha (hIFNα) were quantified in the supernatant using homogeneous time resolved fluorescence (Cisbio).
(§1) Each assay included a positive control compound (referred to herein as “benchmark,” see, e.g., TABLE 3 below, and taken from International Patent Publication No. WO2017/072662, structure shown below) and a negative control (growth medium). […] The structure of the benchmark compound from International Patent Publication No. WO 2017/072662 is as follows: […]

[2] = system: Mouse splenocytes; test: Mouse Splenocyte Assay, cytokine release (HTRF); settings: Splenocyte, 24 hours, mIL6 in supernatant, read-out: Splenocyte IL6 EC50
Procedure: Mouse splenocytes were isolated from fresh mouse spleens. Briefly, spleens were harvested from female balb/c nude mice and transferred to a 70 μm cell strainer. The cell strainer was subsequently placed in a 6-well suspension culture plate containing 5 mL media (RPMI+10% FBS). The spleens were crushed against the cell strainer using the flat end of a 10 mL syringe plunger and the cell strainer was washed with 5 mL media. The cell strainer was discarded, and the cell suspension was washed in PBS. Red blood cells were removed using PharmaLyse (BD). The cell suspension was washed in media, resuspended in CryoStor® CS10 ([…]) and frozen. On assay day, mouse splenocytes were thawed in warm assay buffer (RPMI+10% FBS). Cells were spun down and resuspended in fresh assay buffer. 100,000 cells were added to each well of plates containing test compound. For test compound preparation, each compound was initially diluted to 1 mM in DMSO and further diluted in assay buffer. A 4-fold 11-point titration starting from 15 μM was performed. Cells were incubated with test compound at 37° C.+5% CO2 for 24 hours before supernatant was harvested. Murine IL6 (mIL6) and murine TNFα (mTNFα) were quantified in the supernatant using homogeneous time resolved fluorescence (Cisbio).
as §1

[3] = target: T1, mTLR7 (Mus musculus, UniProt P58681); test: Reporter Gene Assay (RGA), HEK-Blue mTLR7 reporter cells, SEAP readout; settings: overnight incubation, SEAP absorbance 620 nm
T1 construct: host or cells: HEK-Blue mTLR7 reporter cells (HEK293-derived, own knowledge)
T1 sequence (P58681 27-1050): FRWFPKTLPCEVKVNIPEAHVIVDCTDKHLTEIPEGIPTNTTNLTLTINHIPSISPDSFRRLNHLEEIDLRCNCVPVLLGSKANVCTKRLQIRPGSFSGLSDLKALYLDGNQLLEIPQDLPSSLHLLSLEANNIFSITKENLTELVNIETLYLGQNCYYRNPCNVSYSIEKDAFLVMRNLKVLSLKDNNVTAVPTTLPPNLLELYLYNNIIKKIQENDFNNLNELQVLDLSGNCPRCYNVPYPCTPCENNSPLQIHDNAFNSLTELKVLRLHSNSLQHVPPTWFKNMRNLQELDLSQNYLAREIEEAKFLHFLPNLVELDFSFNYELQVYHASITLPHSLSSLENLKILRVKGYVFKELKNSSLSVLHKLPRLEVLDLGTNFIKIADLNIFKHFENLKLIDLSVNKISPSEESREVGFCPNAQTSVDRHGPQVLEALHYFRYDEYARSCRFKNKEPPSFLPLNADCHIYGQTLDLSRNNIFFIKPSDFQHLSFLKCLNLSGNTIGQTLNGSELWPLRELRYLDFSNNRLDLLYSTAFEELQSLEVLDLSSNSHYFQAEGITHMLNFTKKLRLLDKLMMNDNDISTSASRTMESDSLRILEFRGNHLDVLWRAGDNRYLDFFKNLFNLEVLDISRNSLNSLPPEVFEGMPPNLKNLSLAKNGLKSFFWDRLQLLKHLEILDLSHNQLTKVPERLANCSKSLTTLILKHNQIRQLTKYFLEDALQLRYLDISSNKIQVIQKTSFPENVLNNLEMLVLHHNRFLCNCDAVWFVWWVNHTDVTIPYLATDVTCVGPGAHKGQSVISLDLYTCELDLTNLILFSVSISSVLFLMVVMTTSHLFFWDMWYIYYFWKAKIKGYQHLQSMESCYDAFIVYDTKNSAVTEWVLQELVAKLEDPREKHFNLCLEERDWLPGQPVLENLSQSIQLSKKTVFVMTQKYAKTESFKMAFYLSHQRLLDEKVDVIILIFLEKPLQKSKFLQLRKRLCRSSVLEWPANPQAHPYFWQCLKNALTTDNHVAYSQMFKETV
Procedure: (§2) 1.5×10^4 HEK-Blue™ hTLR7 (Invivogen, San Diego, CA) or HEK-Blue™ mTLR7 (Invivogen, San Diego, CA) reporter cells were treated with a titration series of test compound (4-fold titration from […], 11 points). Compounds were initially diluted to 1 mM in DMSO and subsequently serial-diluted in assay media (HEK-Blue™ Detection; Invivogen, San Diego, CA). Cells with test compound were incubated overnight at 37° C.+5% CO2, and the amount of secreted embryonic alkaline phosphatase (SEAP) was determined by measuring absorbance (620 nm) using a Synergy™ H1 microplate reader.
as §1

[4] = target: T2, hTLR7 (Homo sapiens, UniProt Q9NYK1); test: Reporter Gene Assay (RGA), HEK-Blue hTLR7 reporter cells, SEAP readout; settings: overnight incubation, SEAP absorbance 620 nm
T2 construct: host or cells: HEK-Blue hTLR7 reporter cells (HEK293-derived, own knowledge)
T2 sequence (Q9NYK1 27-1049): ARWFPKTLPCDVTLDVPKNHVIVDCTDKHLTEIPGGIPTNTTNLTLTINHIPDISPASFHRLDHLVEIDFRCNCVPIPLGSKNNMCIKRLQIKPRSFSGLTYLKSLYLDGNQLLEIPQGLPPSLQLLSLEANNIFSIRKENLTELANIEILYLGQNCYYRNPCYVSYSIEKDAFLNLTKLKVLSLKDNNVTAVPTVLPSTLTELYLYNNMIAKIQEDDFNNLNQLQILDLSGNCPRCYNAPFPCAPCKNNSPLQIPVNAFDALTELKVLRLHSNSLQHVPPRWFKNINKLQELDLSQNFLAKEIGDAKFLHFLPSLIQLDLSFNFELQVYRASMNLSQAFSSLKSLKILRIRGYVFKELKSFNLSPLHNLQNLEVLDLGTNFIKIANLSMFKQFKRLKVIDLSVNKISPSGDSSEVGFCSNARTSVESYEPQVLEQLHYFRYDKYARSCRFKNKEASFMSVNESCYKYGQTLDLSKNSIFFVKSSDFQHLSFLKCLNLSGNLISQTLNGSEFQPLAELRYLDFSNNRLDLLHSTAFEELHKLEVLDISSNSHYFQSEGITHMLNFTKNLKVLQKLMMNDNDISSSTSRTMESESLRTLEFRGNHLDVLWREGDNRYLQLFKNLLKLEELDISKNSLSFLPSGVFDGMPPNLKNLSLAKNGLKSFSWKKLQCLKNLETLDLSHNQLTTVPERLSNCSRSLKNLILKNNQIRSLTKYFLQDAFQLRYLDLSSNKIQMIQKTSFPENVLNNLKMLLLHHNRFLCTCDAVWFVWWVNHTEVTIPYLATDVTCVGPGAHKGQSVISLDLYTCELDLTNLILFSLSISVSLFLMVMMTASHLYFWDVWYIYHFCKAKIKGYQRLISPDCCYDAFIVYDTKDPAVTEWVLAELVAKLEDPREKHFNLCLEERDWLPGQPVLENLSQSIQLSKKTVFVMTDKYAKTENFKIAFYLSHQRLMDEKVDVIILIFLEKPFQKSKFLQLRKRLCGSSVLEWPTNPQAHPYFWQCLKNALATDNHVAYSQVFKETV
Procedure: as §2, §1

[5] = hIFNα in supernatant, EC50 values approximated and divided into groups, read-out: PBMC IFNa EC50
[6] = hIL6 in supernatant, read-out: PBMC IL6 EC50

Row | Structure (SMILES) | EC50 [1, 5] | EC50 [1, 6] | EC50 [2] | EC50 [3] | EC50 [4]
1 | CCOc1nc(N)c2nc(O)n(Cc3ccc(CNCCCN4CCN(CCCN)CC4)cc3OC)c2n1 [Compound 104, 6-amino-9-(4-(((3-(4-(3-aminopropyl)piperazin-1-yl)propyl)amino)methyl)-2-methoxybenzyl)-2-ethoxy-9H-purin-8-ol] | > 10 nM | 598 nM | 1360 nM | 1040 nM | 1310 nM
2 | CCCCCNc1nc(N)c2nc(O)n(Cc3ccc(CNCC(C)(C)O)cc3)c2n1 [Compound 184, 6-amino-9-(4-(((2-hydroxy-2-methylpropyl)amino)methyl)benzyl)-2-(pentyl-amino)-9H-purin-8-ol] | 0.1 to 1 nM | 29.2 nM | 144 nM | 20.4 nM | 278 nM
3 | CCCCOc1nc(N)c2nc(O)n(Cc3ccc(N4CCNCC4)nc3)c2n1 [Compound 167, 6-amino-2-butoxy-9-((6-(piperazin-1-yl)pyridin-3-yl)methyl)-9H-purin-8-ol] | > 10 nM | 2030 nM | 18 nM | 5.3 nM | 0.5 nM
4 | CCCN(CCC)Cc1ccc(CNCc2ccc(Cn3c(O)nc4c(N)nc(OCC)nc43)c(OC)c2)cc1 [Compound 141, 6-amino-9-(4-(((4-((dipropylamino)methyl)benzyl)amino)methyl)-2-methoxy-benzyl)-2-ethoxy-9H-purin-8-ol] | < 0.1 nM | 9290 nM | 1.3 nM | 1 nM | 0.1 nM
5 | CCCCOc1nc(N)c2nc(O)n(Cc3ccc(CN4CCC5(CCNCC5)CC4)cc3OC)c2n1 [Compound 157, 9-(4-((3,9-diazaspiro[5.5]undecan-3-yl)methyl)-2-methoxybenzyl)-6-amino-2-butoxy-9H-purin-8-ol] | > 10 nM | 473 nM | 9.4 nM | 3.7 nM | 0.9 nM
6 | CCOc1nc(N)c2nc(O)n(Cc3ccc(CNCc4cccnc4)cc3OC)c2n1 [Compound 193] | 0.1 to 1 nM | 109 nM | 48.2 nM | 5.9 nM | 60 nM
7 | CCOc1nc(N)c2nc(O)n(Cc3ccc(CN4CCC5(CCNCC5)CC4)cc3OC)c2n1 [Compound 139, 9-(4-((3,9-diazaspiro[5.5]undecan-3-yl)methyl)-2-methoxybenzyl)-6-amino-2-ethoxy-9H-purin-8-ol] | > 10 nM | 115 nM | 170 nM | 96.5 nM | 6.5 nM
8 | CCOc1nc(N)c2nc(O)n(Cc3ccc(CN[C@H](C(=O)O)[C@@H](C)CC)cc3OC)c2n1 [Compound 121, (4-((6-amino-2-ethoxy-8-hydroxy-9H-purin-9-yl)methyl)-3-methoxybenzyl)-L-isoleucine] | > 10 nM | 13300 nM | ≥ 1000 nM | 772 nM | 343 nM
9 | CCCCOc1nc(N)c2nc(O)n(Cc3ccc(CCCN4CCNCC4)cc3OC)c2n1 [Compound 173, 6-amino-2-butoxy-9-(2-methoxy-4-(3-(piperazin-1-yl)propyl)benzyl)-9H-purin-8-ol] | 1 to 10 nM | 1800 nM | 5 nM | 0.6 nM | 0.2 nM
10 | CCOc1nc(N)c2nc(O)n(Cc3ccc(CNCCN4CCSCC4)cc3OC)c2n1 [Compound 137, 6-amino-2-ethoxy-9-(2-methoxy-4-(((2-thiomorpholinoethyl)amino)methyl)-benzyl)-9H-purin-8-ol] | 0.1 to 1 nM | 39.4 nM | 230 nM | 210 nM | 22.2 nM
11 | CCCCCNc1nc(N)c2nc(O)n(Cc3ccc(CNC4CCNCC4)cc3)c2n1 [Compound 194, 6-amino-2-(pentylamino)-9-(4-((piperidin-4-ylamino)methyl)benzyl)-9H-purin-8-ol] | 1 to 10 nM | 1100 nM | 1390 nM | 35.9 nM | 311 nM
12 | CCOc1nc(N)c2nc(O)n(Cc3ccc(CN4CCNCC4)cc3OC)c2n1 [Compound 100, 6-amino-2-ethoxy-9-(2-methoxy-4-(piperazin-1-ylmethyl)benzyl)-9H-purin-8-ol] | 1 to 10 nM | 240 nM | 2940 nM | 77.9 nM | 6.3 nM
